In BindingDB's records for doi:10.1021/acs.jmedchem.5b00865 (A.V. Bogatsky Physico-Chemical Institute of The National …, 2015):

Molecular target: Integrin alpha-IIb/beta-3 (Homo sapiens)
Test: Antagonist activity against integrin alpha2bbeta3 open form in human platelet rich plasma assessed as inhibition of ADP-induced platelet aggregation

| SMILES | IC50 [µM] |
| --- | --- |
| O=C(CCNC(=O)c1ccc2c(c1)CNCC2)NC[C@@H](NS(=O)(=O)c1ccccc1)C(=O)O | 0.025 |
| CCCCS(=O)(=O)N[C@H](CNC(=O)CCNC(=O)c1ccc2c(c1)CNCC2)C(=O)O | 0.67 |
| CCCCS(=O)(=O)N[C@@H](CNC(=O)CCNC(=O)c1ccc2c(c1)CNCC2)C(=O)O | 0.32 |
| O=C(CCNC(=O)c1ccc2c(c1)CNCC2)NC[C@H](NS(=O)(=O)c1ccccc1)C(=O)O | 0.0062 |

Molecular target: Integrin alpha-IIb/beta-3 (Homo sapiens)
Test: Antagonist activity against integrin alpha2bbeta3 closed form in human platelet rich plasma assessed as inhibition of ADP-induced platelet aggregation

| SMILES | IC50 [µM] |
| --- | --- |
| NCCC(=O)Nc1ccc2nc(N3CCNCC3)[nH]c(=O)c2c1 | 0.15 |
| NCCCC(=O)Nc1ccc2nc(N3CCNCC3)[nH]c(=O)c2c1 | 0.011 |
| O=C(Nc1ccc2nc(N3CCNCC3)[nH]c(=O)c2c1)C1CCNCC1 | 0.1 |
